Where two headings read alike, the source gives them in different places.
Legend:
[1] = cited from earlier work; for λmax: enol form at lower pH, enolate form at neutral and basic pH
[2] = in vitro; cited from earlier work
[3] = tested on: wild-type RAD1 strain (S288c); assay: UVB irradiation of wild-type (RAD1) yeast strain suspended in gadusol-containing supernatant; type: cell-based, S. cerevisiae; conditions: higher doses of UVB; cells in 9-fold concentrated supernatant
Description: (§1) While it would be possible to harvest gadusol from naturally occurring sources, this would not be economical for producing the quantities of gadusol needed for commercially relevant sunscreen products. To overcome this and other problems, the inventors have developed methods and compositions that allow for the high efficiency production of gadusol in microorganism host cells, such as yeast. Expressing the biosynthetic genes for gadusol in microorganisms, such as yeast, provides an opportunity to leverage in-depth knowledge of yeast biochemistry to generate a sustainable process. […] The mutant was cultured in YNB+2% glucose supplemented with leucine and lysine at 30° C. for 2 days. […] In 20 ml cultures (n=3), the recombinant yeast culture produced approximately 20 mg/I of gadusol after 5 days (FIG. 34). […] Large-scale production allows for the use of gadusol in pharmaceuticals, formulations, cosmetics or dietary formulations and products. By way of example, formulations may include pills/capsules, creams, lotions, or the like. In embodiments, the present disclosure provides for a synthetic gadusol having UV-protective activity. […] Cells were then irradiated with UVB and spotted in 3 μl aliquots (n=4) onto YEPD plates which were incubated at 30° C. for 24 h. […]

[4] = tested on: rad1Δ yeast mutant; assay: UVB irradiation of UVB-sensitive rad1Δ yeast mutant suspended in gadusol-containing supernatant; type: cell-based, S. cerevisiae; conditions: cells at 10^7 cells/mL in 9-fold concentrated supernatant, UVB (302 nm), spotted on YEPD, 24 h at 30° C.
Description: as §1

[5] = Arbeloa et al. 2011, at respective absorbance maxima

SMILES | extinction coefficient [1, 5] | λmax ([1]; Plack et al. 1981) | extinction coefficient ([1]; pH 7 in 50 mM phosphate, Plack et al. 1981) | antioxidant activity [2] | UVB tolerance of wild-type (RAD1) strain [3] | UVB sensitivity of rad1Δ yeast mutant [4] | quantum yield of photodecomposition relative to gadusol ([1]; Arbeloa et al. 2011) | photostability ([1]; compared to gadusol)
COC1=C(O)CC(O)(CO)C(O)C1=O (stereo not shown) [gadusol, 3,5,6-trihydroxy-5-hydroxymethyl-2-methoxycyclohex-2-en-1-one] | 12,400 M^−1 cm^−1 | 269 nm | 21,800 M^−1 cm^−1 | exhibit antioxidant activity in vitro | increases UVB tolerance | suppresses the UVB sensitivity | – | –
COC1=C(O)CC(O)(CO)C(O)C1=O (stereo not shown) [gadusolate] | 21,800 M^−1 cm^−1 | 296 nm | – | – | – | – | 260 times | more photostable

— US11072806B2, “Gadusol production” (Oregon State University, priority 2018, dated 2021)
